According to patent publication US10590143B2, “Herbicidally active (alkynyl-phenyl)-substituted cyclic dione compounds and derivatives thereof” (Syngenta Limited, priority 2013, dated 2020):
Like-named read-outs stand apart in the source and are kept apart here.

Columns and labels:
Test in all cases: Biological Example 1 glasshouse assay for herbicidal activity
Format in all cases: in vivo
[1] = test system: Abutilon theophrasti (ABUTH); conditions: 312 h, 13 days after application, read-out: percentage phytotoxicity ABUTH
Procedure: (§1) Seeds of a variety of test plant species were sown in standard soil** in pots. After cultivation for one day (pre-emergence) or after 8 days cultivation (post-emergence) under controlled conditions in a glasshouse (at 24/16° C., day/night; 14 hours light; 65% humidity), the plants were sprayed with an aqueous spray solution derived from the formulation of the technical active ingredient (the test herbicide) in acetone/water (50:50) solution containing 0.5% Tween 20 (polyoxyethylene sorbitan monolaurate, CAS Reg. No. 9005-64-5). The test plants were then grown on under controlled conditions in a glasshouse (at 24/16° C., day/night; 14 hours light; 65% humidity) and watered twice daily. 13 Days after application of the test herbicide, for pre- and post-emergence, the test was evaluated visually for percentage phytotoxicity to each plant (where 100%=total damage to plant; 0%=no damage to plant). Generally, each test herbicide is only tested on 1 plant per plant species for each application rate tested and for each application timing. **The “standard soil” in Biological Example 1 is usually a “sand” or “sandy loam” type of soil.
(§2) Dicotyledonous weeds: ABUTH=Abutilon theophrasti; AMARE=Amaranthus retroflexus. Grassy monocotyledonous weeds: SETFA=Setaria faberi; ALOMY=Alopecurus myosuroides; ECHCG=Echinochloa crus-galli; ZEAMX=Zea mays (corn, maize, e.g. volunteer corn).

[2] = test system: Alopecurus myosuroides (ALOMY); conditions: 312 h, 13 days after application, read-out: percentage phytotoxicity ALOMY
Procedure: as §1, §2

[3] = test system: Amaranthus retroflexus (AMARE); conditions: Amaranthus retroflexus, 312 h, 13 days after application, read-out: percentage phytotoxicity AMARE
Procedure: as §1, §2

[4] = test system: Echinochloa crus-galli (ECHCG); conditions: Echinochloa crus-galli, 312 h, 13 days after application, read-out: percentage phytotoxicity ECHCG
Procedure: as §1, §2

Setaria faberi (SETFA) = conditions: 312 h, 13 days after application, read-out: percentage phytotoxicity SETFA
Procedure: as §1, §2

[5] = test system: Zea mays (ZEAMX, corn, maize, e.g. volunteer corn); conditions: Zea mays, 312 h, 13 days after application, read-out: percentage phytotoxicity ZEAMX
Procedure: as §1, §2

CC#Cc1cc(F)c(C2=C(OC(=O)c3ccccc3)C3CCC(C3)C2=O)c(OC)c1 (stereo not drawn) [Compound P5, [3-(2-fluoro-6-methoxy-4-prop-1-ynyl-phenyl)-4-oxo-2-bicyclo[3.2.1]oct-2-enyl]benzoate]
60%: pest or weed control at 250 g/ha ([1]; pre-emergence, pre-emergence) | pest or weed control at 8 g/ha (Setaria faberi (SETFA); post-emergence, post-emergence) | pest or weed control at 30 g/ha (Setaria faberi (SETFA); pre-emergence, pre-emergence)
80%: pest or weed control at 250 g/ha ([1]; post-emergence, post-emergence) | pest or weed control at 30 g/ha ([4]; pre-emergence, pre-emergence) | pest or weed control at 30 g/ha (Setaria faberi (SETFA); post-emergence, post-emergence) | pest or weed control at 250 g/ha (Setaria faberi (SETFA); pre-emergence, pre-emergence) | pest or weed control at 30 g/ha ([5]; pre-emergence, pre-emergence)
100%: pest or weed control at 250 g/ha ([2]; pre-emergence) | pest or weed control at 30 g/ha ([4]; post-emergence, post-emergence) | pest or weed control at 250 g/ha ([4]; post-emergence, post-emergence) | pest or weed control at 250 g/ha ([4]; pre-emergence, pre-emergence) | pest or weed control at 8 g/ha ([5]; post-emergence, post-emergence) | pest or weed control at 30 g/ha ([5]; post-emergence, post-emergence) | pest or weed control at 250 g/ha ([5]; post-emergence, post-emergence) | pest or weed control at 250 g/ha ([5]; pre-emergence, pre-emergence)
0%: pest or weed control at 8 g/ha ([1]; post-emergence, post-emergence) | pest or weed control at 30 g/ha ([1]; pre-emergence, pre-emergence) | pest or weed control at 8 g/ha ([3]; post-emergence, post-emergence) | pest or weed control at 30 g/ha ([3]; post-emergence, post-emergence)
10%: pest or weed control at 30 g/ha ([1]; post-emergence, post-emergence)
20%: pest or weed control at 250 g/ha ([3]; post-emergence, post-emergence) | pest or weed control at 30 g/ha ([3]; pre-emergence, pre-emergence)
70%: pest or weed control at 8 g/ha ([2]; post-emergence) | pest or weed control at 30 g/ha ([2]; pre-emergence) | pest or weed control at 250 g/ha ([3]; pre-emergence, pre-emergence)
90%: pest or weed control at 30 g/ha ([2]; post-emergence) | pest or weed control at 250 g/ha ([2]; post-emergence) | pest or weed control at 8 g/ha ([4]; post-emergence, post-emergence) | pest or weed control at 250 g/ha (Setaria faberi (SETFA); post-emergence, post-emergence)

CC#Cc1cc(F)c(C2=C(OC(=O)SCC)C3CCC(C3)C2=O)c(OC)c1 (stereo not drawn) [Compound P4]
100%: pest or weed control at 250 g/ha ([2]; pre-emergence) | pest or weed control at 30 g/ha ([4]; post-emergence, post-emergence) | pest or weed control at 250 g/ha ([4]; post-emergence, post-emergence) | pest or weed control at 30 g/ha ([4]; pre-emergence, pre-emergence) | pest or weed control at 250 g/ha ([4]; pre-emergence, pre-emergence) | pest or weed control at 250 g/ha (Setaria faberi (SETFA); post-emergence, post-emergence) | pest or weed control at 8 g/ha ([5]; post-emergence, post-emergence) | pest or weed control at 30 g/ha ([5]; post-emergence, post-emergence) | pest or weed control at 250 g/ha ([5]; post-emergence, post-emergence) | pest or weed control at 250 g/ha ([5]; pre-emergence, pre-emergence)
10%: pest or weed control at 8 g/ha ([1]; post-emergence, post-emergence)
60%: pest or weed control at 250 g/ha ([3]; pre-emergence, pre-emergence) | pest or weed control at 30 g/ha (Setaria faberi (SETFA); pre-emergence, pre-emergence)
80%: pest or weed control at 250 g/ha ([1]; post-emergence, post-emergence) | pest or weed control at 8 g/ha ([2]; post-emergence) | pest or weed control at 30 g/ha ([2]; pre-emergence) | pest or weed control at 30 g/ha (Setaria faberi (SETFA); post-emergence, post-emergence)
70%: pest or weed control at 8 g/ha (Setaria faberi (SETFA); post-emergence, post-emergence)
40%: pest or weed control at 250 g/ha ([1]; pre-emergence, pre-emergence)
90%: pest or weed control at 30 g/ha ([2]; post-emergence) | pest or weed control at 250 g/ha ([2]; post-emergence) | pest or weed control at 8 g/ha ([4]; post-emergence, post-emergence) | pest or weed control at 250 g/ha (Setaria faberi (SETFA); pre-emergence, pre-emergence) | pest or weed control at 30 g/ha ([5]; pre-emergence, pre-emergence)
20%: pest or weed control at 30 g/ha ([1]; post-emergence, post-emergence) | pest or weed control at 8 g/ha ([3]; post-emergence, post-emergence) | pest or weed control at 250 g/ha ([3]; post-emergence, post-emergence)
0%: pest or weed control at 30 g/ha ([1]; pre-emergence, pre-emergence)
30%: pest or weed control at 30 g/ha ([3]; post-emergence, post-emergence) | pest or weed control at 30 g/ha ([3]; pre-emergence, pre-emergence)

CC#Cc1cc(F)c(C2=C(OC(=O)OC(C)C)C3CCC(C3)C2=O)c(OC)c1 (stereo not drawn) [Compound P3]
20%: pest or weed control at 30 g/ha (Setaria faberi (SETFA); pre-emergence, pre-emergence)
90%: pest or weed control at 8 g/ha ([5]; post-emergence, post-emergence)
10%: pest or weed control at 8 g/ha ([1]; post-emergence, post-emergence) | pest or weed control at 30 g/ha ([1]; post-emergence, post-emergence) | pest or weed control at 250 g/ha ([1]; pre-emergence, pre-emergence)
40%: pest or weed control at 250 g/ha ([3]; post-emergence, post-emergence)
80%: pest or weed control at 250 g/ha ([1]; post-emergence, post-emergence) | pest or weed control at 30 g/ha ([2]; post-emergence) | pest or weed control at 8 g/ha ([4]; post-emergence, post-emergence) | pest or weed control at 30 g/ha ([4]; pre-emergence, pre-emergence) | pest or weed control at 30 g/ha (Setaria faberi (SETFA); post-emergence, post-emergence) | pest or weed control at 250 g/ha (Setaria faberi (SETFA); pre-emergence, pre-emergence) | pest or weed control at 30 g/ha ([5]; pre-emergence, pre-emergence)
70%: pest or weed control at 30 g/ha ([2]; pre-emergence)
100%: pest or weed control at 250 g/ha ([2]; post-emergence) | pest or weed control at 250 g/ha ([2]; pre-emergence) | pest or weed control at 30 g/ha ([4]; post-emergence, post-emergence) | pest or weed control at 250 g/ha ([4]; post-emergence, post-emergence) | pest or weed control at 250 g/ha ([4]; pre-emergence, pre-emergence) | pest or weed control at 250 g/ha (Setaria faberi (SETFA); post-emergence, post-emergence) | pest or weed control at 30 g/ha ([5]; post-emergence, post-emergence) | pest or weed control at 250 g/ha ([5]; post-emergence, post-emergence) | pest or weed control at 250 g/ha ([5]; pre-emergence, pre-emergence)
60%: pest or weed control at 8 g/ha ([2]; post-emergence) | pest or weed control at 250 g/ha ([3]; pre-emergence, pre-emergence) | pest or weed control at 8 g/ha (Setaria faberi (SETFA); post-emergence, post-emergence)
0%: pest or weed control at 30 g/ha ([1]; pre-emergence, pre-emergence) | pest or weed control at 8 g/ha ([3]; post-emergence, post-emergence) | pest or weed control at 30 g/ha ([3]; post-emergence, post-emergence)
30%: pest or weed control at 30 g/ha ([3]; pre-emergence, pre-emergence)
